Experiments:
[1] = test system: Porphyromonas gingivalis-induced periodontitis; test: Periodontitis efficacy in Pg-treated, ligature-placed, high-fat-diet ApoE-/- mouse model; format: in vivo, ApoE−/− mice (C57BL/6 background)
Excerpt: (§1) An animal model was created using ApoE^−/^− mice (C57BL/6 background, male, 4 weeks old).
(§2) Animal models were fed with a high-fat diet (HFD), and a 6-0 silk ligature was placed around the maxillary second molar to create a gingival pocket using the ligature placement method for 1 week, followed by treatment with Porphyromonas gingivalis (Pg) or PBS for 5 weeks.
(§3) The depth of the periodontal pocket, the expression level of inflammatory cytokines in the gingival tissue (mRNA level, IF staining), the aggregation of Porphyromonas gingivalis, Porphyromonas gingivalis LPS, Kgp and RgpB in the gingival tissue, the amount of alveolar bone loss, and the number of osteoclasts in the alveolar bone were determined. Further, the effect on osteoclastogenesis was confirmed in an in vitro test.

[2] = test system: gingipain (RgpA, RgpB, Kgp); test: In vitro expression of gingipain in Porphyromonas gingivalis; format: cell-based; conditions: FIG. 23
Procedure: To understand the fundamental mechanism of Porphyromonas gingivalis colony formation, and the reduction of Porphyromonas gingivalis LPS and gingipain by GV1001 in gingival tissues, arterial walls and brain, the effect of GV1001 on the expression of gingipain, which is an enzyme important for the growth and tissue invasion of Porphyromonas gingivalis, was investigated. […] Very low doses (5-30 μM) of GV1001 reduced the expression of RgpA and RgpB by approximately 5 times and the expression of Kgp by approximately 3 times, compared with the control group (Porphyromonas gingivalis 16S IRNA) (FIG. 23).

[3] = test system: Alzheimer's disease induced by periodontitis; test: Periodontitis-related Alzheimer's disease efficacy in Pg-treated ApoE-/- mouse model; format: in vivo, ApoE−/− mice (C57BL/6 background); conditions: GV1001 2 mg/kg i.p., vs control
Excerpt: as §1, §2
The expression levels of inflammatory cytokines, the aggregation of Porphyromonas gingivalis, Porphyromonas gingivalis LPS and Kgp, RgpB, and the accumulation of Aβ42 and p-Tau in brain tissue were confirmed.

[4] = test system: Raw264.7; test: In vitro osteoclastogenesis of macrophage cell line induced into osteoclasts; format: cell-based; conditions: Raw264.7 induced into osteoclasts; FIGS. 6A to 6E
Procedure: as §3
To confirm the efficacy of GV1001 on alveolar bone loss, μCT was used to determine alveolar bone loss in a periodontitis-induced animal model (FIGS. 4A to 4C), and the number of osteoclasts in the alveolar bone was determined by TRAP staining (FIGS. 5A and 5B).

[5] = test system: CD47 in human coronary artery smooth muscle cells (HCASMC); test: CD47 expression in HCASMC treated with TNF-α and Porphyromonas gingivalis LPS; format: cell-based; conditions: TNF-α and Porphyromonas gingivalis LPS treatment; FIGS. 16A to 16F
Procedure: (§4) The expression levels of inflammatory cytokines in serum and arterial tissue, the aggregation of Porphyromonas gingivalis, Porphyromonas gingivalis LPS, Kgp and RgpB in arterial tissue, changes in cholesterol levels in serum, and lipid deposition (atherosclerosis) in the arterial wall were determined. In vitro, inhibition of EndMT and inhibition of macrophage uptake of dil-ox-LDL were evaluated. Further, the CD47 expression levels were determined in the aortic root in vivo and in vitro.
CD47, a representative anti-phagocytic factor, is known to interfere with the removal of cancer cells by macrophages, and overexpression of CD47 is known to cause atherosclerosis. In the present invention, the expression level of CD47 in the aortic root was confirmed in an animal model of periodontitis induction (FIGS. 15A and 15B). […] 2.3 Effect of GV1001 in Alzheimer's Disease Associated with Periodontitis

[6] = test system: atherosclerosis induced by periodontitis; test: Periodontitis-related atherosclerosis efficacy in Pg-treated ApoE-/- mouse model; format: in vivo, ApoE−/− mice (C57BL/6 background); conditions: GV1001 2 mg/kg i.p., vs control
Excerpt: as §1, §2, §4

[7] = test system: human umbilical vein endothelial cells (HUVECs); test: EndMT of HUVECs stimulated with TNF-α and Porphyromonas gingivalis LPS; format: cell-based; conditions: FIGS. 13A, 13B
Procedure: as §4
It is known that when endothelial cells (ECs) change their phenotype into mesenchymal cells (MCs) through endothelial-to-mesenchymal transition (EndMT), it induces various vascular diseases (atherosclerosis, pulmonary hypertension, fibrosis, etc.). TNF-α is known as a cytokine involved in this process. In the present invention, it was confirmed that when human umbilical vein endothelial cells (HUVECs) were stimulated with TNF-α and Porphyromonas gingivalis LPS, ECs (marker; CD31) were decreased while MCs (marker; FSP-1) were increased due to EndMT (FIGS. 13A and 13B). • Control group: EndMT of HUVECs was confirmed to progress by TNF-α and Porphyromonas gingivalis LPS. • GV1001 administration group: The EndMT progression of HUVECs was confirmed to be inhibited by GV1001. […]

[8] = test system: macrophages differentiated from THP-1 (human monocyte cell line) cells; test: ox-LDL uptake by macrophages differentiated from THP-1 cells; format: cell-based; conditions: induced by TNF-α and Porphyromonas gingivalis LPS; THP-1-derived macrophages; FIGS. 14A, 14B
Procedure: as §4
It is known that the formation of foam cells by macrophages in response to LDL and TNF-α is an important process in atherosclerosis. […] As a result, this means that the inhibition of atherogenesis by GV1001 is partly due to its inhibitory effect on foam cell formation.

[9] = GV1001 2 mg/kg i.p., vs control, FIGS. 3A, 3B
[10] = 5-30 μM GV1001, compared with the control group (Porphyromonas gingivalis 16S IRNA)

**Q.** Which results are given for “GV1001: peptide consisting of 16 amino acids, SEQ ID NO: 1, derived from human telomerase reverse transcriptase (hTERT) (EARPALLTSRLRFIPK; UniProt O14746 611-626, looked up, fragment)”?
**A.** inflammatory cytokine (IL-1β, TNF-α, IL-6) mRNA levels in periodontal tissue ([1]; GV1001 2 mg/kg i.p. 3 times/week for 10 weeks, vs periodontitis control, FIG. 1): significantly reduced; inflammatory cytokines (IL-1β, TNF-α, IL-6, GM-CSF, VEGF, IL-17, KC) in serum ([1]; GV1001 2 mg/kg i.p., all cytokines, vs control, FIGS. 7A, 7B): significantly suppressed; Porphyromonas gingivalis LPS in gingival tissue [1, 9]: significantly reduced; gingipain (Kgp, RgpB) in gingival tissue [1, 9]: significantly reduced; number of Porphyromonas gingivalis colonies in gingival tissue [1, 9]: significantly reduced; alveolar bone loss (μCT) ([1]; GV1001 2 mg/kg i.p., vs control, FIGS. 4A to 4C): significantly reduced; osteoclastogenesis in alveolar bone (number of osteoclasts, TRAP staining) ([1]; GV1001 2 mg/kg i.p., vs control, FIGS. 5A, 5B): significantly inhibited; inflammatory cytokine expression in periodontal tissue by fluorescent staining ([1]; GV1001 2 mg/kg i.p., vs periodontitis control, FIGS. 2A, 2B): decrease in cytokine expression was confirmed; reduction of expression of Kgp [2, 10]: approximately 3 times; reduction of expression of RgpA [2, 10]: approximately 5 times; reduction of expression of RgpB [2, 10]: approximately 5 times; expression of gingipain in vitro [2]: markedly inhibited; inflammatory cytokine (IL-1β, TNF-α, IL-6) mRNA levels in brain tissue ([3]; FIG. 17): significantly reduced; inflammatory cytokine expression in brain tissue by fluorescent staining ([3]; FIGS. 18A to 19B): decrease in cytokine expression was confirmed; Porphyromonas gingivalis LPS in the cerebral cortex and hippocampus ([3]; FIGS. 20A to 21B): significantly reduced; gingipain (Kgp, RgpB) in the cerebral cortex and hippocampus ([3]; FIGS. 20A to 21B): significantly reduced; number of Porphyromonas gingivalis colonies in the cerebral cortex and hippocampus ([3]; FIGS. 20A to 21B): significantly reduced; accumulation of Aβ42 in the cerebral cortex and hippocampus ([3]; FIGS. 22A, 22B): significantly reduced; accumulation of p-Tau in the cerebral cortex and hippocampus ([3]; FIGS. 22A, 22B): significantly reduced; osteoclastogenesis in vitro [4]: significantly inhibited; expression level of CD47 in HCASMC [5]: significantly reduced; inflammatory cytokine (IL-1β, TNF-α, IL-6) mRNA levels in arterial tissue ([6]; FIG. 8): significantly reduced; inflammatory cytokine expression in arterial tissue by fluorescent staining ([6]; FIGS. 9A, 9B): decrease in cytokine expression was confirmed; Porphyromonas gingivalis LPS in the arterial wall ([6]; FIGS. 10A, 10B): significantly reduced; gingipain (Kgp, RgpB) in the arterial wall ([6]; FIGS. 10A, 10B): significantly reduced; number of Porphyromonas gingivalis colonies in the arterial wall ([6]; FIGS. 10A, 10B): significantly reduced; level of low-density lipoprotein (LDL) in serum ([6]; FIGS. 11A, 11B): significantly reduced; level of total cholesterol (TC) in serum ([6]; FIGS. 11A, 11B): significantly reduced; expression level of CD47 in the aortic root ([6]; FIGS. 15A, 15B): significantly reduced; intravascular lipid deposition, wall of the aorta-iliac bifurcation ([6]; Sudan IV and Oil Red O staining, FIGS. 12A, 12B): significantly suppressed; EndMT progression of HUVECs (CD31, FSP-1 markers) [7]: inhibited; ox-LDL uptake [8]: significantly inhibited

Reference: patent publication US20260284153A1, “COMPOSITION COMPRISING GV1001 FOR PREVENTING OR TREATING PERIODONTAL DISEASES AND DISORDERS CAUSED BY PERIODONTAL DISEASES” (GEMVAX & KAEL CO., LTD., priority 2023, published 2026)
